{"source": "patent US20050287096A1", "about": "“Method for improving the appearance of skin” (priority 2004, published 2005)", "origin": "cited, not measured here", "system": "knee abrasions", "conditions": "ointment containing 5% sucralfate, topical"}
{"substance": "sucralfate", "values": [{"measurement": "stopping of fusion from the abrasions", "setting": "knee abrasions caused by falls during a basketball game", "value": "fusion to be stopped after twenty four hours"}, {"measurement": "healing of the abrasions", "setting": "period after fusion stopped", "value": "good healing occurring over a three day period"}]}
